Here are results for 26 molecules from ChEMBL document CHEMBL1131713, “Substituted piperidines--highly potent renin inhibitors due to induced fit adaptation of the active site” (Bioorg Med Chem Lett, 1999).

Active and inactive are the calls of the source. The rule behind the calls is not given here.

One may read the IC50 as the midpoint of a concentration-inhibition curve.

In the first assay the target is T1, Renin (Homo sapiens, UniProt P00797).
T1 sequence (P00797 whole entry): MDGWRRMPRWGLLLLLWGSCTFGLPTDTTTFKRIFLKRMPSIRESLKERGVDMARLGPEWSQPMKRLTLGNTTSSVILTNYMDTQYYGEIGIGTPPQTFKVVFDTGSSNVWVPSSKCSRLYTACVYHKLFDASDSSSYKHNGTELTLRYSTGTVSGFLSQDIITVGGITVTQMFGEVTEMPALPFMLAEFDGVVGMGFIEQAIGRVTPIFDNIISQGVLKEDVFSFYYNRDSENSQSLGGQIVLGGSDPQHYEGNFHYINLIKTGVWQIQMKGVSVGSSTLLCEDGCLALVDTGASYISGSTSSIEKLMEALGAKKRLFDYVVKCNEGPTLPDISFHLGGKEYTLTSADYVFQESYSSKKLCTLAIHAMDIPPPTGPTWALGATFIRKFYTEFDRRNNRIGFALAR
In words: In vitro inhibitory activity against purified recombinant human renin.
For `COc1ccc(C(=O)NCc2ccc([C@H]3CCNC[C@@H]3OCc3ccc4ccccc4c3)cc2)cc1` (racemic), the IC50 is over 1000 µM.

For `COc1ccc(CO[C@H]2CNCC[C@@H]2c2ccc(Cl)cc2)cc1`, the IC50 is 26 µM.

As for `c1ccc(COCCOCc2ccc([C@H]3CCNC[C@@H]3OCc3ccc4ccccc4c3)cc2)cc1` (racemic), the IC50 came to 0.091 µM.

Regarding `O=C(OCCOc1ccc([C@H]2CCNC[C@@H]2OCc2ccc3ccccc3c2)cc1)c1cccnc1` (racemic), the IC50 turned out to be 0.58 µM.

Turning to `c1ccc(COCCCOc2ccc([C@H]3CCNC[C@@H]3OCc3ccc4ccccc4c3)cc2)nc1` (racemic), the IC50 amounted to 0.21 µM.

As to `c1ccc(COCCCCOc2ccc([C@H]3CCNC[C@@H]3OCc3ccc4ccccc4c3)cc2)cc1` (racemic), the IC50 worked out at 0.1 µM.

Consider `c1ccc(OCCCOCc2ccc([C@H]3CCNC[C@@H]3OCc3ccc4ccccc4c3)cc2)cc1` (racemic), for which the IC50 was 0.54 µM.

`COc1ccccc1COCCCOc1ccc([C@H]2CCNC[C@@H]2OCc2ccc3ccccc3c2)cc1` (racemic): the IC50 was 0.0015 µM.

As for `COc1ccc(COC2CNCCC2c2ccc(Cl)cc2)cc1` (racemic), the IC50 was found to be 50 µM.

`O=S(=O)(NCc1ccc([C@H]2CCNC[C@@H]2OCc2ccc3ccccc3c2)cc1)c1ccccc1` (racemic): the IC50 is 40 µM.

On to `c1ccc(-c2noc(COc3ccc([C@H]4CCNC[C@@H]4OCc4ccc5ccccc5c4)cc3)n2)cc1` (racemic), for which the IC50 turned out to be 0.041 µM.

With `c1ccc(OCCCCOc2ccc([C@H]3CCNC[C@@H]3OCc3ccc4ccccc4c3)cc2)cc1` (racemic), the IC50 was 0.22 µM.

With `c1ccc(COCCOc2ccc([C@H]3CCNC[C@@H]3OCc3ccc4ccccc4c3)cc2)cc1` (racemic), the IC50 turned out to be 0.053 µM.

With `c1ccc(COCCCOc2ccc([C@H]3CCNC[C@@H]3OCc3ccc4ccccc4c3)cc2)cc1` (racemic), the IC50 turned out to be 0.008 µM.

For the molecule `O=C(CCCOc1ccc([C@H]2CCNC[C@@H]2OCc2ccc3ccccc3c2)cc1)c1ccccc1` (racemic), the IC50 was 0.22 µM.

Consider `COc1ccc(CO[C@@H]2CNCC[C@H]2c2ccc(Cl)cc2)cc1`, for which the IC50 amounted to 1200 µM.

`c1ccc(CCOCCOc2ccc([C@H]3CCNC[C@@H]3OCc3ccc4ccccc4c3)cc2)cc1` (racemic): the 50% inhibitory concentration (IC50) stood at 0.16 µM.

With `O=C(NCCOc1ccc([C@H]2CCNC[C@@H]2OCc2ccc3ccccc3c2)cc1)c1ccccc1` (racemic), the IC50 came to 2.6 µM.

`O=C(OCc1ccc([C@H]2CCNC[C@@H]2OCc2ccc3ccccc3c2)cc1)c1ccccc1` (racemic): the IC50 worked out at 0.055 µM.

Regarding `c1cncc(-c2noc(COc3ccc([C@H]4CCNC[C@@H]4OCc4ccc5ccccc5c4)cc3)n2)c1` (racemic), the IC50 was 0.88 µM.

As to `c1ccc(OCCOCc2ccc([C@H]3CCNC[C@@H]3OCc3ccc4ccccc4c3)cc2)cc1` (racemic), the IC50 was determined as 0.16 µM.

As to `c1ccc(COCCCOCc2ccc([C@H]3CCNC[C@@H]3OCc3ccc4ccccc4c3)cc2)cc1` (racemic), the IC50 worked out at 0.74 µM.

`COc1ccccc1COCCCOc1ccc([C@H]2CCNC[C@@H]2OCc2cc(OC)c3ccccc3c2OC)cc1` (racemic): the IC50 came out at 6e-05 µM.

Regarding `O=C(OCCOc1ccc([C@H]2CCNC[C@@H]2OCc2ccc3ccccc3c2)cc1)c1ccccc1` (racemic), the IC50 stood at 0.026 µM.

For `CC(C)(C)S(=O)(=O)C[C@@H](Cc1ccccc1)C(=O)N[C@@H](Cc1cnc[nH]1)C(=O)N[C@@H](CC1CCCCC1)[C@@H](O)[C@@H](O)C1CC1` [REMIKIREN], the IC50 is 2.5e-05 µM.

For the molecule `COc1cccc(C(=O)OCc2ccc([C@H]3CCNC[C@@H]3OCc3ccc4ccccc4c3)cc2)c1` (racemic), the IC50 turned out to be 0.087 µM.

For the next assay, the target named is Human immunodeficiency virus type 1 protease (Human immunodeficiency virus 1) (UniProt Q72874). In words: Inhibition against HIV protease; NA means no activity.
Consider `COc1ccc(COC2CNCCC2c2ccc(Cl)cc2)cc1` (racemic), for which the outcome was inactive.

The target in the next assay is Pepsin A (Sus scrofa) (UniProt P00791). In words: Inhibition against porcine pepsin; NA means no activity.
Chain of Pepsin A (Sus scrofa) (P00791 60-385 limits assumed): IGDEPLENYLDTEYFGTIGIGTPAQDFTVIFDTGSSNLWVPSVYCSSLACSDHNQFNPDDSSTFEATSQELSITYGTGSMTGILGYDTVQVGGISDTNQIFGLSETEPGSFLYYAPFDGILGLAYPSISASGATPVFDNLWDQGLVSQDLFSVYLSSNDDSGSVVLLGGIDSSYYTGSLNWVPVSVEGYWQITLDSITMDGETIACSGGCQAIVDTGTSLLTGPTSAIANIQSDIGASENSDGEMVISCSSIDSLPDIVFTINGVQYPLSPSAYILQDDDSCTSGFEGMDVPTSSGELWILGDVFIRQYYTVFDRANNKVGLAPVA
On to `COc1ccc(COC2CNCCC2c2ccc(Cl)cc2)cc1` (racemic), for which the result was inactive.

The next assay deals with T2, Cathepsin D (Bos taurus) (UniProt P80209).
T2 sequence (whole entry): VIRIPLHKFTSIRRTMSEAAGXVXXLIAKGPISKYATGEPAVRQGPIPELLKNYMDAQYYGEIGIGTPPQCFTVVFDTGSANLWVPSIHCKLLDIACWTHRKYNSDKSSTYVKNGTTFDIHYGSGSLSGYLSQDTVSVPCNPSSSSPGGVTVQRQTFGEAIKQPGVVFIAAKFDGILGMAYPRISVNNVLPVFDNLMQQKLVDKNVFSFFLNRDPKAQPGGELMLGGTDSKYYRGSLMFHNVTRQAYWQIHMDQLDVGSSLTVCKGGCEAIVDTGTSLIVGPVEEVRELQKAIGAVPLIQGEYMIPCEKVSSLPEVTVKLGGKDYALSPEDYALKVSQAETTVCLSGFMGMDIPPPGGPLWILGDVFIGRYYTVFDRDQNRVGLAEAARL
In words: Inhibition against bovine cathepsin D; NA means no activity.
Regarding `COc1ccc(COC2CNCCC2c2ccc(Cl)cc2)cc1` (racemic), the outcome was inactive.
